# From patent US7855205B2, “Pyrimidinyl substituted fused-pyrrolyl compounds useful in treating kinase disorders” (Janssen Pharmaceutica NV, priority 2004, dated 2010)
# Tests used:
# HCT-116 colon carcinoma = assay: Inhibition of cell proliferation (14C-thymidine incorporation), HCT-116; type: cell-based; settings: Homo sapiens, HCT-116, HCT116
# Experimental: (§1) The ability of a test compound to inhibit the proliferation of cell growth was determined by measuring incorporation of ^14C-labelled thymidine into newly synthesized DNA within the cells. This method was used on cell lines derived from carcinomas originating from several tissues such as HeLa cervical adenocarcinoma (American Type Culture Collection (ATCC), Virginia, Cat. #CCL-2), A375 malignant melanoma (ATCC CRL-1619), HCT-116 colon carcinoma (CCL-247). In this way the effect of a compound on cell growth of cells with many different phenotypes can be determined. Cells were trypsinized and counted and 3000-8000 cells were added to each well of a 96-well CytoStar tissue culture treated scintillating microplate (Amersham #RPNQ0160) in complete medium in a volume of 100 μL. Cells were incubated for 24 hours in complete medium at 37° C. in an atmosphere containing 5% CO2.
# (§2) Next, 1 μL of test compound in 100% DMSO was added to the wells of the plate. DMSO only was added to control wells. Cells were incubated for 24 more hours in complete medium at 37° C. in an atmosphere containing 5% CO2. Methyl ^14C-thymidine 56 mCi/mmol (NEN #NEC568 or Amersham #CFA532) was diluted in complete medium and 0.2 uCi/well was added to each well of the CytoStar plate in a volume of 20 μl. The plate was incubated for 24 hours at 37° C. plus 5% CO2 in drug plus ^14C-thymidine. The contents of the plate discarded into a ^14C radioactive waste container by inverting the plate and the plate was washed twice with 200 μL PBS.
# (§3) 200 μL of PBS is added to each well. The top of the plate was sealed with a transparent plate sealer and a white plate backing sealer (Packard #6005199) was applied to the bottom of the plate. The degree of methyl ^14C-thymidine incorporation was quantified on a Packard Top Count.
# CDK1:Cyclin-B = molecular target: T1, CDK1:Cyclin-B (Homo sapiens, UniProt P06493); assay: CDK1 Screening Assay; type: biochemical; settings: 33P-γ-ATP incorporation, 10 μM ATP
# T1 construct: purchased New England Biolabs, Beverly, Mass; 6020; host or cells: insect cells
# T1 sequence (P06493 whole entry): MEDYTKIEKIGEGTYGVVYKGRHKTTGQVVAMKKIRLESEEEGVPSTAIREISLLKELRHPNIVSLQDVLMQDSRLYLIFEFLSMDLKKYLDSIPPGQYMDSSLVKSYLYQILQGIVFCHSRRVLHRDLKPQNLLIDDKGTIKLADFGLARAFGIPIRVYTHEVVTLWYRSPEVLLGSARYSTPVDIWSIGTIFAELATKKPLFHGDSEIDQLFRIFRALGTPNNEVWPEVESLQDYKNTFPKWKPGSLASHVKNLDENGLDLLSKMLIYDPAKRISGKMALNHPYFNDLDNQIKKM
# T1 sequence (P14635 whole entry partner): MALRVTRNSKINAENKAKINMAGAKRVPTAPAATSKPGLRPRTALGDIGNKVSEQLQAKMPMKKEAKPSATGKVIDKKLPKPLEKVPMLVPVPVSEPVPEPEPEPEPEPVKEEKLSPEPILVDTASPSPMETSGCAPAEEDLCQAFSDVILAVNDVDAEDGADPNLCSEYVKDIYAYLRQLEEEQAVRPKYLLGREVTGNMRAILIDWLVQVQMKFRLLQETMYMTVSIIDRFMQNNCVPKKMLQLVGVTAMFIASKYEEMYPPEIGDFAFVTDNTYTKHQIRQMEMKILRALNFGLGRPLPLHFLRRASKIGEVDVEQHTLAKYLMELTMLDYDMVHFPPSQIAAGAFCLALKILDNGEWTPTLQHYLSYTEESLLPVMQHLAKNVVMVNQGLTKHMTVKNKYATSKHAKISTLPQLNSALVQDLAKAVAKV
# Experimental: (§4) A kinase reaction mixture was prepared containing 50 mM Tris-HCl pH=8, 10 mM MgCl2, 0.1 mM […], 1 mM DTT, 10 μM ATP, 0.025 μM biotinylated histone-HI peptide substrate and […] per well ^33P-γ-ATP (2000-3000 Ci/mmol). 70 μL of the kinase reaction mixture was dispensed into the well of a streptavidin coated FlashPlate™ (Cat. # SMP103, NEN, Boston, Mass.). Then 1 μL of test compound stock in 100% DMSO was added to the wells resulting in a final concentration of 1% DMSO in the reaction with a 100 μL final reaction volume.
# (§5) The CDK1:Cyclin-B protein was then diluted in 50 mM Tris-HCl pH=8.0, 0.1% BSA at a concentration of 1 ng per μL and 30 μL (30 ng enzyme per test well) was added to each well to initiate the reaction. The reaction was incubated for one hour at 30° C. At the end of the 1 h incubation, the reaction was terminated by aspirating the mixture from the plate and washing the wells twice with PBS containing 100 mM EDTA. The histone-H1 biotinylated peptide substrate became immobilized on the Flashplate™ and the incorporation of ^33P-γ-ATP was measured by reading the plate on a scintillation counter. Inhibition of the enzymatic activity of CDK1 was measured by observing a reduced amount of ^33P-γ-ATP incorporated into the immobilized peptide.
# The CDK1 used was isolated from insect cells expressing both the human CDK1 catalytic subunit and its positive regulatory subunit cyclin B (New England Biolabs, Beverly, Mass., Cat. #6020).
# (§6) • VEGF-R2, HER2 and (Biotin)[…]-Amide • RET kinases • CDK1 (Biotin)[…]-Amide • Aurora-A kinase Biotin-[…]-Amide
# A375 malignant melanoma = assay: Inhibition of cell proliferation (14C-thymidine incorporation), A375; type: cell-based, human; settings: Homo sapiens, A-375
# Experimental: as §1, §2, §3
# Aurora-A = molecular target: T2, Aurora-A (Mus musculus, UniProt P97477); assay: Aurora-A Screening Assay; type: biochemical, murine; settings: 33P-γ-ATP incorporation, 10 μM ATP
# T2 construct: made in house; host or cells: sf9 insect cells
# T2 sequence (P97477 1-395): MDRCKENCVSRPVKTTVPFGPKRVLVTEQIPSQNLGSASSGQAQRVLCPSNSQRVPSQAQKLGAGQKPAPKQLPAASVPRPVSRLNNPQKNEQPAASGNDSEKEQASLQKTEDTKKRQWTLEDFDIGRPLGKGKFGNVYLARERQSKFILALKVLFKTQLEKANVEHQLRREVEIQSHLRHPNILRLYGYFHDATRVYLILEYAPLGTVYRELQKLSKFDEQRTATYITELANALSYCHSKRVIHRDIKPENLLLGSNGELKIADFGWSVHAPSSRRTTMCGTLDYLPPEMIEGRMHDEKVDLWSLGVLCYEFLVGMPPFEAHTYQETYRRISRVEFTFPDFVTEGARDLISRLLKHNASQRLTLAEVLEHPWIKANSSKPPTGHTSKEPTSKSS
# Experimental: as §4, §5
# The Aurora-A kinase assay was carried out using the CDK kinase assay procedure except that the enzyme was replaced with the full length protein encoding the murine Aurora-A (Accession# GB BC014711) expressed and purified from sf9 insect cells.
# as §6
# VEGF-R2 = molecular target: T3, VEGF-R2 (Rattus norvegicus, UniProt O08775); assay: VEGF-R2 Screening Assay; type: biochemical; settings: 33P-γ-ATP incorporation, 10 μM ATP
# T3 construct: polyhistidine (N)
# T3 sequence (O08775 786-1343): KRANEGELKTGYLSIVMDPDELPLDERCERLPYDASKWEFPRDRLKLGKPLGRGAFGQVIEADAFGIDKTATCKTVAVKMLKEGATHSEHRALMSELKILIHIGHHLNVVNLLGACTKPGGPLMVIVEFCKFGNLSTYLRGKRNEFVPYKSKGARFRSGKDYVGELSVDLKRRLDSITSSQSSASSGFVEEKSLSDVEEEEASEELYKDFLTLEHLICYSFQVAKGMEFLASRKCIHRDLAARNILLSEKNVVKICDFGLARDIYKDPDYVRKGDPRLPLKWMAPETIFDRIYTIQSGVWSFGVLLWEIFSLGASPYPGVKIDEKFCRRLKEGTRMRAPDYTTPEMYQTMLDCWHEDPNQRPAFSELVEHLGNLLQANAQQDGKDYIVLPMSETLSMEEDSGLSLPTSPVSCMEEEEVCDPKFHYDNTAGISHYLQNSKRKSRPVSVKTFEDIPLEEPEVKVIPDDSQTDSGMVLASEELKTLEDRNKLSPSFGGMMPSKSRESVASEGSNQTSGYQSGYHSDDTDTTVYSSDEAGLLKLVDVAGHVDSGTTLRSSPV
# Experimental: as §5, with “Then 1 μL of test compound stock in 100% DMSO was added to the wells resulting in a final concentration of 1% DMSO in the reaction with a 100 μL final reaction volume. The CDK1:Cyclin-B” for “The CDK1:Cyclin-B”, “immobilized peptide. The VEGF-R kinase assay was carried out using the CDK kinase assay procedure except that the enzyme was replaced with the VEGF-R2 fusion protein containing a polyhistidine tag at the N-terminus followed by amino acids 786-1343 of the rat VEGF-R2 kinase domain (GenBank Accession #U93306).” for “immobilized peptide.”
# [1] = test system: HeLa cervical adenocarcinoma; assay: Inhibition of cell proliferation (14C-thymidine incorporation), HeLa; type: cell-based; settings: Homo sapiens;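 note: HeLa cells in 96-well scintillating plates, compound for 24 h then 24 h more with 14C-thymidine, counting label built into new DNA against DMSO-only control wells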
SMILES,IC50 (HCT-116 colon carcinoma) [µM],IC50 (CDK1:Cyclin-B) [µM],IC50 (A375 malignant melanoma) [µM],IC50 (Aurora-A) [µM],IC50 (VEGF-R2) [µM],IC50 [1] [µM]
"Cc1cc(Br)ccc1Nc1nccc(-c2c[nH]c3ncccc23)n1 [Cpd 41, (4-Bromo-2-methylphenyl)-[4-(1H-pyrrolo[2,3-b]pyridin-3-yl)-pyrimidin-2-yl]-amine]",0.0132,0.0063,0.042,0.182,1.64,0.0101
Cc1cc(CCN(C)C)ccc1Nc1nccc(-c2c[nH]c3ncccc23)n1 [Cpd 46],0.000545,0.0016,0.000634,0.466,0.341,0.000963
"Cc1cc(CCN2CCN(C)CC2)ccc1Nc1nccc(-c2c[nH]c3ncccc23)n1 [Cpd 51, {4-[2-(4-Methylpiperizin-1-yl)ethyl]-2-methylphenyl}-[4(1H-pyrrolo[2,3-b]pyridin-3-yl)-pyrimidin-2-yl]-amine]",0.00361,0.0026,0.00352,0.895,1.25,0.00466
"CN1CCC(Nc2nccc(-c3c[nH]c4ncccc34)n2)CC1 [Cpd 61, (1-Methylpiperidin-4-yl)-[4-(1H-pyrrolo[2,3-b]pyridin-3-yl)-pyrimidin-2-yl]-amine]",0.0153,0.129,0.0214,2.25,10,0.026
"NC1CCN(c2nccc(-c3c[nH]c4ncccc34)n2)CC1 [Cpd 62, 1-[4-(1H-pyrrolo[2,3-b]pyridin-3-yl)-pyrimidin-2-yl]-piperidin-4-ylamine]",0.525,0.5,0.622,0.762,2.67,1.08
"CS(=O)(=O)n1cc(-c2ccnc(NC3CCCCC3)n2)c2cccnc21 [Cpd 67, Cyclohexyl-[4-(1-methanesulfonyl-1H-pyrrolo[2,3-b]pyridin-3-yl)pyrimidin-2-yl]-amine]",0.298,0.128,0.504,2.36,1,0.393
"CC(=O)n1cc(-c2ccnc(NC3CCCCC3)n2)c2cccnc21 [Cpd 68, Cyclohexyl-[4-(1-acetyl-1H-pyrrolo[2,3-b]pyridin-3-yl)pyrimidin-2-yl]-amine]",0.0129,0.0308,0.0317,0.32,1,0.023
"OCCn1cc(-c2ccnc(N[C@H]3CC[C@H](O)CC3)n2)c2cccnc21 [Cpd 72, trans-4-{4-[1-(2-Hydroxyethyl)-1H-pyrrolo[2,3-b]pyridin-3-yl]-pyrimidin-2-ylamino}-cyclohexanol]",0.077,0.6,0.165,6.06,10,0.144

# Second part, the compound after the results:
IC50 (HCT-116 colon carcinoma) [µM],IC50 (CDK1:Cyclin-B) [µM],IC50 (A375 malignant melanoma) [µM],IC50 (Aurora-A) [µM],IC50 (VEGF-R2) [µM],IC50 [1] [µM],SMILES
0.242,0.168,0.862,0.735,1.66,0.384,"Oc1ccc(Nc2nccc(-c3c[nH]c4ncccc34)n2)cc1 [Cpd 39, (4-Hydroxyphenyl)-[4-(1H-pyrrolo[2,3-b]pyridin-3-yl)-pyrimidin-2-yl]-amine]"
0.000353,0.002,0.000743,0.917,7.88,0.00112,"N[C@H]1CC[C@H](Nc2nccc(-c3c[nH]c4ncccc34)n2)CC1 [Cpd 42, trans-N-[4-(1H-Pyrrolo[2,3-b]pyridin-3-yl)-pyrimidin-2-yl]-cyclohexane-1,4-diamine]"
0.0732,0.283,0.0973,3.98,10,0.135,"Cc1[nH]c2ncccc2c1-c1ccnc(N[C@H]2CC[C@H](N)CC2)n1 [Cpd 57, trans-N-[4-(2-Methyl-1H-pyrrolo[2,3-b]pyridin-3-yl)-pyrimidin-2-yl]-cyclohexane-1,4-diamine]"
0.222,0.109,0.277,0.566,1.54,0.514,"c1cnc2[nH]cc(-c3ccnc(N[C@@H]4CC5CCC4C5)n3)c2c1 (stereo partly drawn) [Cpd 58, (2R)-Bicyclo[2.2.1]hept-2-yl-[4-(1H-pyrrolo[2,3-b]pyridin-3-yl)-pyrimidin-2-yl]-amine]"
0.379,0.062,0.251,0.437,0.55,0.291,"c1cnc2[nH]cc(-c3ccnc(N[C@H]4CC5CCC4C5)n3)c2c1 (stereo partly drawn) [Cpd 59, (2S)-Bicyclo[2.2.1]hept-2-yl-[4-(1H-pyrrolo[2,3-b]pyridin-3-yl)-pyrimidin-2-yl]-amine]"
0.0175,0.0373,0.0417,1.51,2.46,0.0411,"c1cnc2[nH]cc(-c3ccnc(NC4CCOCC4)n3)c2c1 [Cpd 60, (Tetrahydropyran-4-yl)-[4-(1H-pyrrolo[2,3-b]pyridin-3-yl)-pyrimidin-2-yl]-amine]"
40,2.11,16.4,4.19,10,34.7,"CC(=O)NC1CCN(c2nccc(-c3c[nH]c4ncccc34)n2)CC1 [Cpd 63, N-{1-[4-(1H-pyrrolo[2,3-b]pyridin-3-yl)-pyrimidin-2-yl]-piperidin-4-yl}acetamide]"
0.0689,0.0498,0.155,1.68,10,0.136,"CC(=O)N1CCC(Nc2nccc(-c3c[nH]c4ncccc34)n2)CC1 [Cpd 64, 1-{4-[4-(1H-pyrrolo[2,3-b]pyridin-3-yl)pyrimidin-2-ylamino]piperidin-1-yl}ethanone]"
